Values of other authors in US11213608B2, “Compositions including gelatin nanoparticles and methods of use thereof” (Wake Forest University Health Sciences, priority 2018, dated 2022).

Tested on: HepG2 cells

Structure (SMILES): Cc1c(C)c2c(c(C)c1O)CCC(C)(COc1ccc(CC3SC(=O)NC3=O)cc1)O2 (stereo not shown) [TRO, troglitazone]
- concentration above which toxic effects are commonly reported: above 100 μM
